According to paper PMC6705210, “Inhibition of HTLV-1 Infection by HIV-1 First- and Second-Generation Integrase Strand Transfer Inhibitors” (Frontiers in Microbiology, 2019):
Read-outs that look alike come from different tables or passages of the source.

Columns and labels:
[1] = tested on: HIV-1; settings: read-out: HIV-1 antiviral activity EC50, cited from earlier work
[2] = molecular target: T1, HTLV-1 integrase (Human T-cell leukemia virus 1, UniProt P03362); assay: In vitro HTLV-1 integrase strand transfer assay (concerted integration, agarose gel densitometry); assay type: biochemical; settings: for Inhibition of enzymatic activity Hill slope: dose-response fit of strand transfer inhibition
T1 construct: Full-length wild type HTLV-1 IN was recombinantly expressed, purified, and characterized; SUMO (pET28a-SUMO fusion) (N); made in house
Description: Donor DNA mimicking the U5 3′-processed LTR ends of the viral DNA copy was prepared by annealing oligonucleotides (Supplementary Table S1), in 100 mM Tris pH 7.4, 400 mM NaCl. The optimized conditions for the strand transfer reactions are as follows: a solution was prepared containing 73 mM PIPES pH 6.0, 175 mM NaCl, 16.7 mM MgCl2, 5.8 μM ZnCl2, 12.8 mM DTT, 0.53 μM donor DNA, and 0.8 μM HTLV-1 integrase. Following a 30 min room temperature incubation in the presence or absence of INSTIs in the final concentration of 5% DMSO, the reaction was initiated by addition of 300 ng of pGEM-9Zf(−) supercoiled plasmid DNA. The total volume of each reaction was 150 μL. Reactions were carried out at 37°C for 30 min and were processed as described previously ([Maertens et al., 2010]). All reactions were performed in these conditions unless otherwise stated in the Figure legend. Reactions that included B′γ were done with equimolar ratio of IN to B′γ. The precipitated DNA was resuspended in agarose loading dye and analyzed on a 1.5% agarose gel run in 1× TAE buffer and stained with ethidium bromide. Bands corresponding to products of concerted integration were quantified by densitometry in ImageLab 4.1 (Bio-Rad). All experiments were done in triplicate.
Quantified data points were fitted to a dose-response curve in Prism 7. Cumulative standard deviation for each drug was calculated as an average of the upper limit and lower limit values: […]

[3] = Cellular toxicity in Jurkat cells (live dead stain Hoechst 33258, FACS); assay type: cell-based; settings: human
Description: MT-2 cells were resuspended to a concentration of 2 × 10^6 cells/mL and exposed to a sub-lethal dose of gamma-irradiation (40,000 Rad). Cells were resuspended in serum-free RPMI to a concentration of 2 × 10^6 cells/mL in the presence of drug, and 0.5 × 10^6 of each cell type were co-cultured for 18 h. Following co-culture, cells were washed in PBS and resuspended in 1 mL of depletion buffer (0.1% FBS, 2 mM EGTA, PBS) before gentle tumbling (1 h, 4°C) with 25 μL of anti-CD25 + magnetic beads (DynaBeads, Thermo Fisher Scientific) to deplete MT-2 cells. Following depletion, the unbound fraction, i.e., Jurkat cells were maintained in RPMI with the drug present for 16 days before genomic DNA harvest (DNeasy kit, Qiagen). All experiments were done in triplicate. Depletion of MT-2 cells was verified by FACS. For cellular toxicity measurements, Jurkat cells were grown in the presence of the INSTIs as described above. Viability was measured by live dead stain (Hoechst 33258) and analyzed by FACS.

[4] = tested on: HTLV-1; assay: HTLV-1 infection of Jurkat cells by cell-to-cell transmission (co-culture with irradiated MT-2), proviral load by qPCR; assay type: cell-based, Human T-cell lymphotropic virus type 1; settings: for EC50: read-out: Antiviral activity EC50 (HTLV-1)
Description: Jurkat cells were pre-treated with increasing amounts of INSTI (0.2 pM–2 μM in DMSO), or the carrier (DMSO) for 24 h. MT-2 cells were resuspended to a concentration of 2 × 10^6 cells/mL and exposed to a sub-lethal dose of gamma-irradiation (40,000 Rad). Cells were resuspended in serum-free RPMI to a concentration of 2 × 10^6 cells/mL in the presence of drug, and 0.5 × 10^6 of each cell type were co-cultured for 18 h. Following co-culture, cells were washed in PBS and resuspended in 1 mL of depletion buffer (0.1% FBS, 2 mM EGTA, PBS) before gentle tumbling (1 h, 4°C) with 25 μL of anti-CD25 + magnetic beads (DynaBeads, Thermo Fisher Scientific) to deplete MT-2 cells. Following depletion, the unbound fraction, i.e., Jurkat cells were maintained in RPMI with the drug present for 16 days before genomic DNA harvest (DNeasy kit, Qiagen). All experiments were done in triplicate. Depletion of MT-2 cells was verified by FACS. For cellular toxicity measurements, Jurkat cells were grown in the presence of the INSTIs as described above. Viability was measured by live dead stain (Hoechst 33258) and analyzed by FACS.
Proviral load (PVL) was estimated as previously described ([Manivannan et al., 2016]; [Rowan et al., 2016]). Genomic DNA concentrations were measured by nanospectroscopy (DeNovix), and samples were diluted to 5 ng/μL for real-time PCR (qPCR) analysis. qPCR reactions were performed for both the HTLV-1 tax gene and the human GAPDH gene (Supplementary Table S2). Gene copy numbers were determined by comparison to standard curves generated from a clone with a known single integration site (clone 11.50, courtesy of Prof. Charles Bangham). PVL was calculated by comparison of tax and GAPDH copy numbers as a fraction, multiplied by 100 to generate a percentile value assuming a single copy of tax and two copies of GAPDH per infected cell ([Lairmore et al., 1989]). Alu-PCR was performed as described previously ([Alais et al., 2015]), with the modification that the nested PCR was also run as a qPCR using SYBR-green (primers used are shown in Supplementary Table S2). Integrated provirus copy numbers were normalized to GAPDH, and DMSO treated HTLV-1 infected Jurkat cells were arbitrarily set to 100%. Averages and standard deviations of three independent experiments are shown. P-values were calculated using the student’s t-test.

[5] = tested on: HTLV-1; parameters: method as in Pasquier et al., 2018; settings: ref Pasquier et al., 2018, cited from earlier work
[6] = HTLV-1 IN 0.8 μM, concerted integration product
[7] = HTLV-1 IN 0.8 μM, concerted integration product, triplicate, read-out: Inhibition of enzymatic activity IC50
[8] = Jurkat cells co-cultured with irradiated MT-2, PVL 16 days post-infection
[9] = Primate T-lymphotropic virus 1, Jurkat, light or radiation study, 384 h, Jurkat cells co-cultured with irradiated MT-2, PVL 16 days post-infection

T1 sequence (P03362 1168-1462): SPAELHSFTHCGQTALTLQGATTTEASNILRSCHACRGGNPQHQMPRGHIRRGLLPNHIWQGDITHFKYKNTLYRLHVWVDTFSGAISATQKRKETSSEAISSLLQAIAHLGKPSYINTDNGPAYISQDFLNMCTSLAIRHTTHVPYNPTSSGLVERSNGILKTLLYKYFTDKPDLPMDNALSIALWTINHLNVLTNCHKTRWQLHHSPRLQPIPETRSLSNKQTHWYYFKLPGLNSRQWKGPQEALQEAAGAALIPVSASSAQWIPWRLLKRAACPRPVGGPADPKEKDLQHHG

Structure (SMILES) | Inhibition of enzymatic activity IC95 [2, 6] | IC50 [2, 7] | Inhibition of enzymatic activity Hill slope [2] | EC50 ([1]; ref a) | Antiviral activity EC95 (HTLV-1) [4, 8] | further results
Cn1c(N2CCCCS2(=O)=O)nc(C(=O)NCc2ccc(F)cc2)c(O)c1=O [BMS-707035] | 12200 ± 2900 nM | 350 ± 74 nM | 0.83 | – | – | EC50 ([1]; ref c): 2.5 nM
O=C(NCc1c(F)cc(F)cc1F)c1cn2c(c(O)c1=O)C(=O)N1[C@H]3CC[C@H](C3)O[C@@H]1C2 [Bictegravir, bictegravir] | 2090 ± 437 nM | 180 ± 29 nM | 1.2 | 1.6 ± 0.4 nM | 31.8 ± 18.2 nM | CC50 [3]: > 20000 nM; fold higher activity than raltegravir or elvitegravir, respectively ([4]; HTLV-1 cell-to-cell infection model, versus raltegravir or elvitegravir): 20–30 fold; EC50 [4, 8]: 0.302 ± 0.173 nM; EC50 [4, 9]: 0.3 ± 0.17 nM; more potent than TDF in blocking HTLV-1 infection ([4]; versus TDF): ~60; activity relative to elvitegravir ([2]; in vitro assays, versus elvitegravir): ~55%
C[C@@H]1CCO[C@H]2Cn3cc(C(=O)NCc4ccc(F)cc4F)c(=O)c(O)c3C(=O)N12 [Dolutegravir, dolutegravir] | 3020 ± 485 nM | 260 ± 59 nM | 1.2 | 1.4 ± 0.3 nM | – | –
COc1cc2c(cc1Cc1cccc(Cl)c1F)c(=O)c(C(=O)O)cn2[C@H](CO)C(C)C [Elvitegravir, elvitegravir] | 1900 ± 304 nM | – | 1.0 | – | 1270 ± 735 nM | CC50 [3]: > 20000 nM; EC50 [4, 9]: 9.57 ± 5.54 nM; IC50 [2]: 100 ± 16 nM
Cc1nnc(C(=O)NC(C)(C)c2nc(C(=O)NCc3ccc(F)cc3)c(O)c(=O)n2C)o1 [Raltegravir, raltegravir] | 29920 ± 5750 nM | – | 0.73 | 9.4 ± 1.4 nM | 1020 ± 675 nM | CC50 ([3]; Jurkat cells, read-out: CC50): > 20000 nM; EC50 ([4]; Primate T-lymphotropic virus 1, Jurkat, light or radiation study, 384 h): 6.42 ± 4.24 nM; IC50 [2]: 530 ± 102 nM
CC(C)OC(=O)OCOP(=O)(CO[C@H](C)Cn1cnc2c(N)ncnc21)OCOC(=O)OC(C)C.O=C(O)/C=C/C(=O)O [TDF, tenofovir disproxil fumarate] | – | – | – | – | – | EC50 [4, 8]: 17.8 ± 7.16 nM; HTLV-1 infection blocked ([5]; at concentrations of 10 μM): about 50%
Cc1cn([C@H]2C[C@H](N=[N+]=[N-])[C@@H](CO)O2)c(=O)[nH]c1=O [zidovudine] | – | – | – | – | – | inhibition of HTLV-1 infection ([5]; at 50 μM concentration): 10–20%
